# Results as given in patent publication US20260206755A1, “COMPOUNDS AND COMPOSITIONS HAVING KNOCK-DOWN OR BLOOD FEED INHIBITION ACTIVITY AGAINST INSECT PESTS” (priority 2017, published 2026).
# Where two headings read alike, the source gives them in different places.
# Test system: Anopheles stephensi
# Test: Anopheles stephensi treated well plate contact test: knockdown and mortality
# Assay type: in vivo
# Description: Examples Anopheles stephensi (Indian Malaria Mosquito)
# The individual wells of twelve (12) well tissue culture plates were treated with 200 μl of an ethanol solution containing a test compound of Table 1 or Table 2 at a defined concentration and repeated with also 200 μl of an ethanol solution containing in addition 2 ppm TFNA-AM. Once the deposits were dry, five non-blood fed adult female Anopheles stephensi (between two to five day old) were added to each well, and sustained with a 10% sucrose solution in a cotton wool plug. Assessment of the knockdown after 1 hour, and mortality after 24 and 48 hours was carried out.
# In case of multiple tests, the mean value is reported.
# [1] = Anopheles stephensi, test compound 0.2 ppm, without TFNA-AM, after 24 hours, read-out: mortality % 24, without TFNA-AM
# [2] = Anopheles stephensi, test compound 0.2 ppm, without TFNA-AM, after 48 hours, read-out: mortality % 48, without TFNA-AM
# [3] = Anopheles stephensi, test compound 0.2 ppm, without TFNA-AM, knockdown after 1 hour, read-out: Knock Down, without TFNA-AM
# [4] = Anopheles stephensi, test compound 2 ppm, without TFNA-AM, after 24 hours, read-out: mortality % 24, without TFNA-AM
# [5] = Anopheles stephensi, test compound 2 ppm, without TFNA-AM, after 48 hours, read-out: mortality % 48, without TFNA-AM
# [6] = Anopheles stephensi, test compound 2 ppm, without TFNA-AM, knockdown after 1 hour, read-out: Knock Down, without TFNA-AM
# [7] = Anopheles stephensi, test compound 20 ppm, without TFNA-AM, after 24 hours, read-out: mortality % 24, without TFNA-AM
# [8] = Anopheles stephensi, test compound 20 ppm, without TFNA-AM, after 48 hours, read-out: mortality % 48, without TFNA-AM
# [9] = Anopheles stephensi, test compound 20 ppm, without TFNA-AM, knockdown after 1 hour, read-out: Knock Down, without TFNA-AM
# [10] = Anopheles stephensi, test compound 200 ppm, without TFNA-AM, after 24 hours, read-out: mortality % 24, without TFNA-AM
# [11] = Anopheles stephensi, test compound 200 ppm, without TFNA-AM, after 48 hours, read-out: mortality % 48, without TFNA-AM
# [12] = Anopheles stephensi, test compound 200 ppm, without TFNA-AM, knockdown after 1 hour, adult females, read-out: Knock Down, without TFNA-AM
# [13] = test compound 0.2 ppm plus 2 ppm TFNA-AM, after 24 hours
# [14] = test compound 0.2 ppm plus 2 ppm TFNA-AM, after 48 hours
# [15] = test compound 0.2 ppm plus 2 ppm TFNA-AM, knockdown after 1 hour
# [16] = test compound 2 ppm plus 2 ppm TFNA-AM, after 24 hours
# [17] = test compound 2 ppm plus 2 ppm TFNA-AM, after 48 hours
# [18] = test compound 2 ppm plus 2 ppm TFNA-AM, knockdown after 1 hour
# [19] = test compound 20 ppm plus 2 ppm TFNA-AM, after 24 hours
# [20] = test compound 20 ppm plus 2 ppm TFNA-AM, after 48 hours
# [21] = test compound 20 ppm plus 2 ppm TFNA-AM, knockdown after 1 hour
# [22] = test compound 200 ppm plus 2 ppm TFNA-AM, after 24 hours
# [23] = test compound 200 ppm plus 2 ppm TFNA-AM, after 48 hours
# [24] = test compound 200 ppm plus 2 ppm TFNA-AM, knockdown after 1 hour
# [25] = test compound 0.2 ppm, without TFNA-AM, after 24 hours
# [26] = test compound 0.2 ppm, without TFNA-AM, after 48 hours
# [27] = test compound 0.2 ppm, without TFNA-AM, knockdown after 1 hour
# [28] = test compound 2 ppm, without TFNA-AM, after 24 hours
# [29] = test compound 2 ppm, without TFNA-AM, after 48 hours
# [30] = test compound 2 ppm, without TFNA-AM, knockdown after 1 hour
# [31] = test compound 20 ppm, without TFNA-AM, after 24 hours
# [32] = test compound 20 ppm, without TFNA-AM, after 48 hours
# [33] = test compound 20 ppm, without TFNA-AM, knockdown after 1 hour
# [34] = test compound 200 ppm, without TFNA-AM, after 24 hours
# [35] = test compound 200 ppm, without TFNA-AM, after 48 hours
# [36] = test compound 200 ppm, without TFNA-AM, knockdown after 1 hour, adult females
# [37] = Anopheles stephensi, 24 h, read-out: mortality % 24, without TFNA-AM
# [38] = Anopheles stephensi, 48 h, read-out: mortality % 48, without TFNA-AM
Compound,mortality at 0.2 ppm [1] [%],mortality at 0.2 ppm [2] [%],pest or weed control at 0.2 ppm [3] [%],mortality at 2 ppm [4] [%],mortality at 2 ppm [5] [%],pest or weed control at 2 ppm [6] [%],mortality at 20 ppm [7] [%],pest or weed control at 20 ppm [9] [%],"mortality % 24, with TFNA-AM [13] [%]","mortality % 48, with TFNA-AM [14] [%]","Knock Down, with TFNA-AM [15] [%]","mortality % 24, with TFNA-AM [16] [%]","mortality % 48, with TFNA-AM [17] [%]","Knock Down, with TFNA-AM [18] [%]","mortality % 24, with TFNA-AM [19] [%]","mortality % 48, with TFNA-AM [20] [%]","Knock Down, with TFNA-AM [21] [%]","mortality % 24, with TFNA-AM [22] [%]","mortality % 48, with TFNA-AM [23] [%]","Knock Down, with TFNA-AM [24] [%]",also measured
CC(C)N1C(=O)N(c2ccccc2)CS/C1=N\C(C)(C)C [Buprofezin],0,0,0,0,0,0,0,0,80,60,100,100,60,100,100,60,100,80,40,100,mortality at 20 ppm [8]: 0%; mortality at 200 ppm [10]: 0%; mortality at 200 ppm [11]: 0%; pest or weed control at 200 ppm [12]: 0%
Nc1nc(N)nc(NC2CC2)n1 [Cyromazine],0,0,0,0,0,0,0,0,20,0,100,20,0,100,60,40,100,80,40,100,mortality at 20 ppm [8]: 0%; mortality at 200 ppm [10]: 0%; mortality at 200 ppm [11]: 0%; pest or weed control at 200 ppm [12]: 0%
OC(c1ccc(Cl)cc1)(c1ccc(Cl)cc1)C(Cl)(Cl)Cl [Dicofol],0,0,0,0,0,0,0,0,20,0,100,60,20,100,80,100,100,100,100,100,mortality at 20 ppm [8]: 0%; mortality at 200 ppm [10]: 0%; mortality at 200 ppm [11]: 0%; pest or weed control at 200 ppm [12]: 0%
CC(COc1ccc(Oc2ccccc2)cc1)Oc1ccccn1 (centres unmarked) [Pyriproxyfen],0,0,0,0,0,0,0,0,60,60,100,60,60,100,60,60,100,80,80,100,mortality at 20 ppm [8]: 0%; mortality at 200 ppm [10]: 0%; mortality at 200 ppm [11]: 0%; pest or weed control at 200 ppm [12]: 0%
CN(C(=O)c1ccccc1)c1cccc(C(=O)Nc2c(Br)cc(C(F)(C(F)(F)F)C(F)(F)F)cc2C(F)(F)F)c1F [Broflanilide],,,,,,,,,87,93,100,100,100,100,100,100,93,100,100,87,"mortality % 24, without TFNA-AM [25]: 0%; mortality % 48, without TFNA-AM [26]: 20%; Knock Down, without TFNA-AM [27]: 0%; mortality % 24, without TFNA-AM [28]: 100%; mortality % 48, without TFNA-AM [29]: 100%; Knock Down, without TFNA-AM [30]: 0%; mortality % 24, without TFNA-AM [31]: 100%; mortality % 48, without TFNA-AM [32]: 100%; Knock Down, without TFNA-AM [33]: 0%; mortality % 24, without TFNA-AM [34]: 100%; mortality % 48, without TFNA-AM [35]: 100%; Knock Down, without TFNA-AM [36]: 0%"
CCOC(=O)NCCOc1ccc(Oc2ccccc2)cc1 [Fenoxycarb],0,0,0,0,0,0,0,20,40,40,100,80,80,100,80,80,100,80,80,100,mortality at 20 ppm [8]: 0%; mortality at 200 ppm [10]: 0%; mortality at 200 ppm [11]: 0%; pest or weed control at 200 ppm [12]: 20%
Abamectin,,,,,,,,,20,27,100,47,53,100,93,100,100,100,100,100,"mortality % 24, without TFNA-AM [25]: 13%; mortality % 48, without TFNA-AM [26]: 20%; Knock Down, without TFNA-AM [27]: 0%; mortality % 24, without TFNA-AM [28]: 13%; mortality % 48, without TFNA-AM [29]: 33%; Knock Down, without TFNA-AM [30]: 0%; mortality % 24, without TFNA-AM [31]: 53%; mortality % 48, without TFNA-AM [32]: 87%; Knock Down, without TFNA-AM [33]: 7%; mortality % 24, without TFNA-AM [34]: 100%; mortality % 48, without TFNA-AM [35]: 100%; Knock Down, without TFNA-AM [36]: 47%"
CNC(=O)Oc1cccc2c1OC(C)(C)O2 [Bendiocarb],,,20,,,100,,100,100,100,100,100,100,100,100,100,100,,,,"mortality at 0.02 ppm [37]: 0%; mortality at 0.2 ppm [37]: 60%; mortality at 2 ppm [37]: 100%; mortality at 20 ppm [37]: 100%; mortality at 0.02 ppm [38]: 0%; mortality at 0.2 ppm [38]: 60%; mortality at 2 ppm [38]: 100%; mortality at 20 ppm [38]: 100%; pest or weed control at 0.02 ppm (Anopheles stephensi, test compound 0.02 ppm, without TFNA-AM, knockdown after 1 hour, read-out: Knock Down, without TFNA-AM): 0%; mortality % 24, with TFNA-AM (test compound 0.02 ppm plus 2 ppm TFNA-AM, after 24 hours): 20%; Knock Down, with TFNA-AM (test compound 0.02 ppm plus 2 ppm TFNA-AM, knockdown after 1 hour): 100%"
